According to PubChem BioAssay (NCI):
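At the GI50, growth is halved. At the TGI there is no net growth.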

Legend:
Test in all cases: DTP human tumour cell line panel, 384-well format; in the data active means GI50 below about 0.43 µM; inactive means the rest
786-0 renal = test system: 786-0 renal
A498 renal = test system: A498 renal
A549 NSCLC = test system: A549 NSCLC
ACHN renal = test system: ACHN renal
BT-549 breast = test system: BT-549 breast
CAKI-1 renal = test system: CAKI-1 renal
CCRF-CEM leukemia = test system: CCRF-CEM leukemia
COLO 205 colon = test system: COLO 205 colon
DU-145 prostate = test system: DU-145 prostate
EKVX NSCLC = test system: EKVX NSCLC
HCC-2998 colon = test system: HCC-2998 colon
HCT-116 colon = test system: HCT-116 colon
HCT-15 colon = test system: HCT-15 colon
HL-60(TB) leukemia = test system: HL-60(TB) leukemia
HOP-62 NSCLC = test system: HOP-62 NSCLC
HOP-92 NSCLC = test system: HOP-92 NSCLC
HS 578T breast = test system: HS 578T breast
HT29 colon = test system: HT29 colon
IGROV1 ovarian = test system: IGROV1 ovarian
KM12 colon = test system: KM12 colon
LOX IMVI melanoma = test system: LOX IMVI melanoma
M14 melanoma = test system: M14 melanoma
MALME-3M melanoma = test system: MALME-3M melanoma
MCF7 breast = test system: MCF7 breast
MDA-MB-231 breast = test system: MDA-MB-231 breast
MDA-MB-435 melanoma = test system: MDA-MB-435 melanoma
MDA-MB-468 breast = test system: MDA-MB-468 breast
MOLT-4 leukemia = test system: MOLT-4 leukemia
NCI-H226 lung = test system: NCI-H226 lung
NCI-H23 lung = test system: NCI-H23 lung
NCI-H322M lung = test system: NCI-H322M lung
NCI-H460 NSCLC = test system: NCI-H460 NSCLC
NCI-H522 lung = test system: NCI-H522 lung
NCI/ADR-RES ovarian = test system: NCI/ADR-RES ovarian
OVCAR-3 ovarian = test system: OVCAR-3 ovarian
OVCAR-4 ovarian = test system: OVCAR-4 ovarian
OVCAR-5 ovarian = test system: OVCAR-5 ovarian
OVCAR-8 ovarian = test system: OVCAR-8 ovarian
PC-3 prostate = test system: PC-3 prostate
RPMI-8226 leukemia = test system: RPMI-8226 leukemia
RXF 393 renal = test system: RXF 393 renal
SF-268 CNS = test system: SF-268 CNS
SF-295 CNS = test system: SF-295 CNS
SF-539 CNS = test system: SF-539 CNS
SK-MEL-28 melanoma = test system: SK-MEL-28 melanoma
SK-MEL-5 melanoma = test system: SK-MEL-5 melanoma
SK-OV-3 ovarian = test system: SK-OV-3 ovarian
SN12C renal = test system: SN12C renal
SNB-19 CNS = test system: SNB-19 CNS
SNB-75 CNS = test system: SNB-75 CNS
SW-620 colon = test system: SW-620 colon
T-47D breast = test system: T-47D breast
TK-10 renal = test system: TK-10 renal
U251 glioblastoma = test system: U251 glioblastoma
UACC-257 melanoma = test system: UACC-257 melanoma
UACC-62 melanoma = test system: UACC-62 melanoma
UO-31 renal = test system: UO-31 renal

C[C@H]1Oc2cc(cnc2N)-c2c(nn(C)c2C#N)CN(C)C(=O)c2ccc(F)cc21
99.5 µM: TGI (NCI-H522 lung)
> 86.2 µM: TGI (MDA-MB-468 breast)
> 63.1 µM: TGI (RXF 393 renal)
> 73.1 µM: TGI (NCI-H226 lung)
67.6 µM: TGI (HOP-92 NSCLC)
active: GI50 (KM12 colon) 0.364 µM
18.8 µM: TGI (MOLT-4 leukemia)
44.1 µM: TGI (EKVX NSCLC)
> 84.7 µM: TGI (SNB-75 CNS)
84.5 µM: TGI (MDA-MB-231 breast)
> 83.6 µM: TGI (IGROV1 ovarian)
> 78.6 µM: TGI (NCI-H322M lung)
> 54 µM: TGI (UO-31 renal)
> 100 µM: TGI (786-0 renal) | TGI (A498 renal) | TGI (A549 NSCLC) | TGI (BT-549 breast) | TGI (CAKI-1 renal) | TGI (CCRF-CEM leukemia) | TGI (DU-145 prostate) | TGI (HCC-2998 colon) | TGI (HCT-116 colon) | TGI (HCT-15 colon) | TGI (HL-60(TB) leukemia) | TGI (HOP-62 NSCLC) | TGI (HS 578T breast) | TGI (HT29 colon) | TGI (KM12 colon) | TGI (LOX IMVI melanoma) | TGI (M14 melanoma) | TGI (MALME-3M melanoma) | TGI (MCF7 breast) | TGI (MDA-MB-435 melanoma) | TGI (NCI-H23 lung) | TGI (NCI-H460 NSCLC) | TGI (NCI/ADR-RES ovarian) | TGI (OVCAR-3 ovarian) | TGI (OVCAR-4 ovarian) | TGI (OVCAR-5 ovarian) | TGI (OVCAR-8 ovarian) | TGI (PC-3 prostate) | TGI (RPMI-8226 leukemia) | TGI (SF-268 CNS) | TGI (SF-295 CNS) | TGI (SF-539 CNS) | TGI (SK-MEL-28 melanoma) | TGI (SK-MEL-5 melanoma) | TGI (SK-OV-3 ovarian) | TGI (SN12C renal) | TGI (SNB-19 CNS) | TGI (SW-620 colon) | TGI (T-47D breast) | TGI (TK-10 renal) | TGI (U251 glioblastoma) | TGI (UACC-257 melanoma) | TGI (UACC-62 melanoma)
> 84.1 µM: TGI (COLO 205 colon)
> 24.9 µM: TGI (ACHN renal)
inactive: GI50 (786-0 renal) 49.7 µM | GI50 (A498 renal) > 95.6 µM | GI50 (A549 NSCLC) 22 µM | GI50 (ACHN renal) 11.4 µM | GI50 (BT-549 breast) > 100 µM | GI50 (CAKI-1 renal) 26.5 µM | GI50 (CCRF-CEM leukemia) 57.1 µM | GI50 (COLO 205 colon) 11.1 µM | GI50 (DU-145 prostate) 49.8 µM | GI50 (EKVX NSCLC) 9.26 µM | GI50 (HCC-2998 colon) > 100 µM | GI50 (HCT-116 colon) 32.1 µM | GI50 (HCT-15 colon) 91.9 µM | GI50 (HL-60(TB) leukemia) 63.8 µM | GI50 (HOP-62 NSCLC) 15.7 µM | GI50 (HOP-92 NSCLC) 11 µM | GI50 (HS 578T breast) 19.9 µM | GI50 (HT29 colon) 18 µM | GI50 (IGROV1 ovarian) 26.1 µM | GI50 (LOX IMVI melanoma) > 71.9 µM | GI50 (M14 melanoma) 56.3 µM | GI50 (MALME-3M melanoma) 26.2 µM | GI50 (MCF7 breast) 17.5 µM | GI50 (MDA-MB-231 breast) 14.6 µM | GI50 (MDA-MB-435 melanoma) > 100 µM | GI50 (MDA-MB-468 breast) 23.8 µM | GI50 (MOLT-4 leukemia) 4.84 µM | GI50 (NCI-H226 lung) 23 µM | GI50 (NCI-H23 lung) 24.3 µM | GI50 (NCI-H322M lung) 23.6 µM | GI50 (NCI-H460 NSCLC) 35.7 µM | GI50 (NCI-H522 lung) 33.7 µM | GI50 (NCI/ADR-RES ovarian) 41.6 µM | GI50 (OVCAR-3 ovarian) > 88 µM | GI50 (OVCAR-4 ovarian) > 100 µM | GI50 (OVCAR-5 ovarian) 37.7 µM | GI50 (OVCAR-8 ovarian) > 100 µM | GI50 (PC-3 prostate) > 100 µM | GI50 (RPMI-8226 leukemia) 57 µM | GI50 (RXF 393 renal) 11.6 µM | GI50 (SF-268 CNS) 47.3 µM | GI50 (SF-295 CNS) 72.8 µM | GI50 (SF-539 CNS) > 100 µM | GI50 (SK-MEL-28 melanoma) > 79.1 µM | GI50 (SK-MEL-5 melanoma) 50.2 µM | GI50 (SK-OV-3 ovarian) 68.2 µM | GI50 (SN12C renal) 61.6 µM | GI50 (SNB-19 CNS) > 100 µM | GI50 (SNB-75 CNS) 34.4 µM | GI50 (SW-620 colon) > 100 µM | GI50 (T-47D breast) 57.2 µM | GI50 (TK-10 renal) > 92.9 µM | GI50 (U251 glioblastoma) > 100 µM | GI50 (UACC-257 melanoma) > 100 µM | GI50 (UACC-62 melanoma) 32.8 µM | GI50 (UO-31 renal) 37.3 µM
